These results are taken from article PMC8550792, “Evolution of kinase polypharmacology across HSP90 drug discovery” (Cell Chemical Biology, 2021).

Holding throughout (assay): biochemical
Holding throughout (type): biochemical

The target of experiment [1] is T1, 382 unique human kinases (Homo sapiens, UniProt P29322).
T1 construct: purchased Reaction Biology (HotSpot contract assay)
T1 sequence (P29322 28-1005): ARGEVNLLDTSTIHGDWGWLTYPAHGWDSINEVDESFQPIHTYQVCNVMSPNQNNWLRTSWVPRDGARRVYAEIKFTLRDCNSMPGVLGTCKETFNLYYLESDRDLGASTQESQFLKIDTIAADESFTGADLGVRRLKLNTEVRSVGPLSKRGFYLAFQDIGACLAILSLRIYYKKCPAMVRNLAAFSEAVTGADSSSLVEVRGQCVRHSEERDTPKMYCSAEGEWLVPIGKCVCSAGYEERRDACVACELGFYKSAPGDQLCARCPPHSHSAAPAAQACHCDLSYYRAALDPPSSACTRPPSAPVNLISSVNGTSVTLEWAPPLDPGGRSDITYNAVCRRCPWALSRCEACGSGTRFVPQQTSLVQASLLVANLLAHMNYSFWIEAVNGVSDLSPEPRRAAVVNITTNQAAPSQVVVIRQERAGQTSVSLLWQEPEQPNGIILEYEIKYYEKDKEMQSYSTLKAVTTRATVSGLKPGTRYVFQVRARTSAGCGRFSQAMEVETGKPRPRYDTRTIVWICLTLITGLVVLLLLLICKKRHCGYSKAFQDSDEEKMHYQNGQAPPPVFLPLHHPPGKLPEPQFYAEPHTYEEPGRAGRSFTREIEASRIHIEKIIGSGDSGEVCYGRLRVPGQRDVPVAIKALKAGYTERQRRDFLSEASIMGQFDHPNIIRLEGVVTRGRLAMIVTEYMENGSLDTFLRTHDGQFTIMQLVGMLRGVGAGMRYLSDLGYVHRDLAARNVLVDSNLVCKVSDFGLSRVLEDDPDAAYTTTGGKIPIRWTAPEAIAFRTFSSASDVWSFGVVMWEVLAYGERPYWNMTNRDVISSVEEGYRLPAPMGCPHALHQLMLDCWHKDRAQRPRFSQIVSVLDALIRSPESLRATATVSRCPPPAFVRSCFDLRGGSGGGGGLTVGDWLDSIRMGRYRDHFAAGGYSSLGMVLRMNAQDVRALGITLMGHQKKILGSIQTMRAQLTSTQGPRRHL
As to conditions: kinase EPHA8, compound 10 uM; for remaining activity at 10 µM: read-out: % Enzyme Activity (relative to DMSO controls).

Experiment [2] has as its target T2, 382 unique human kinases (Homo sapiens, UniProt P37173).
T2 construct: purchased Reaction Biology (HotSpot contract assay)
As to conditions: kinase TGFBR2, compound 10 uM; for remaining activity at 10 µM: read-out: % Enzyme Activity (relative to DMSO controls).

For experiment [3], the target named is T3, 382 unique human kinases (Homo sapiens, UniProt Q04771, Q207D).
T3 construct: purchased Reaction Biology (HotSpot contract assay)
T3 sequence (Q04771 21-509 Q207D): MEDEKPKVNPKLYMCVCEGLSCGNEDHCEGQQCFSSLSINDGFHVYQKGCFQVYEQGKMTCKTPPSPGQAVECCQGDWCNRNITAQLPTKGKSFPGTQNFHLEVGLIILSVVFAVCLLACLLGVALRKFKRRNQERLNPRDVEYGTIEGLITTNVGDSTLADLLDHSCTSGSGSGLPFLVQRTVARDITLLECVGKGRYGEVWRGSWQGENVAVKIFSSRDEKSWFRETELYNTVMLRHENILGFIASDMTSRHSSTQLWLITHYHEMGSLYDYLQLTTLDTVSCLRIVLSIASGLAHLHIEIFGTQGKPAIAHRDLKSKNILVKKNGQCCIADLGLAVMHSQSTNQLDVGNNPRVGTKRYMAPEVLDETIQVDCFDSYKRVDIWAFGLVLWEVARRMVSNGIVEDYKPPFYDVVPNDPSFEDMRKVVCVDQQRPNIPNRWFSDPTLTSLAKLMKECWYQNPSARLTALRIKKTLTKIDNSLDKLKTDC
Particulars: ALK2 (Q207D), compound at 10 uM, duplicate values; for remaining activity at 10 µM: read-out: % Enzyme Activity (relative to DMSO controls).

The target in experiment [4] is T4, 382 unique human kinases (Homo sapiens, UniProt Q13043).
T4 construct: purchased Reaction Biology (HotSpot contract assay)
T4 sequence (Q13043 1-487): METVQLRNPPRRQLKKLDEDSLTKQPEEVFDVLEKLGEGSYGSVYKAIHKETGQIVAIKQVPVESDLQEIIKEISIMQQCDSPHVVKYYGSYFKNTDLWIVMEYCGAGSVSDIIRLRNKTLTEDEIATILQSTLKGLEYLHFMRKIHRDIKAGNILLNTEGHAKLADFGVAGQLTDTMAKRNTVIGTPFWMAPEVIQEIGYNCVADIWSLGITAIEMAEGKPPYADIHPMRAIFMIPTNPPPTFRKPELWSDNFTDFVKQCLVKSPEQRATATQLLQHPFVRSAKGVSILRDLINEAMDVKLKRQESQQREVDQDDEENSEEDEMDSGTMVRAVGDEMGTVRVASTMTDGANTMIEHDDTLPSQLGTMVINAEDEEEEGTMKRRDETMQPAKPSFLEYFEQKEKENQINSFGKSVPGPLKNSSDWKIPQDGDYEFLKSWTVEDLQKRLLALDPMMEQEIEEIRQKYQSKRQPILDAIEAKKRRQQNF
As to conditions: MST1/STK4, 10 uM; for remaining activity at 10 µM: read-out: % Enzyme Activity (relative to DMSO controls).

The target in experiment [5] is T5, 382 unique human kinases (Homo sapiens, UniProt Q92630).
T5 construct: purchased Reaction Biology (HotSpot contract assay)
T5 sequence (Q92630 1-601): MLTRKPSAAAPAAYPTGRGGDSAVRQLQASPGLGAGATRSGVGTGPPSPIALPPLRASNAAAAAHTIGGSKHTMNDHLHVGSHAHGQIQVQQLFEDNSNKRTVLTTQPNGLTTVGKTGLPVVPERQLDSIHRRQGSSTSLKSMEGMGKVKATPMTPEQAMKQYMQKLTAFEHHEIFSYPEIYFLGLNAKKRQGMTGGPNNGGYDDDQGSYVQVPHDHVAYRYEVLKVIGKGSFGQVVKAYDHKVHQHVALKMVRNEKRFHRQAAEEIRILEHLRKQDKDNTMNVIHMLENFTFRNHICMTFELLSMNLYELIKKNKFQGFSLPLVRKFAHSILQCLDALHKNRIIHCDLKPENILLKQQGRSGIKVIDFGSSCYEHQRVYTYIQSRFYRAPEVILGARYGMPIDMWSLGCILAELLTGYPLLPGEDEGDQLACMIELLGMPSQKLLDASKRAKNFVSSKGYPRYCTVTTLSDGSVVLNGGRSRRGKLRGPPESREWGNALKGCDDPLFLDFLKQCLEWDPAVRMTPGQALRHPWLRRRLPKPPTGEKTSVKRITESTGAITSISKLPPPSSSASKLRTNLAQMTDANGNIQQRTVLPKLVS
As to conditions: DYRK2, 10 uM; for remaining activity at 10 µM: read-out: % Enzyme Activity (relative to DMSO controls).

Experiment [6] concerns the target T6, 382 unique human kinases (Homo sapiens, UniProt P80192).
T6 construct: purchased Reaction Biology (HotSpot contract assay)
As to conditions: MLK1/MAP3K9, 10 uM; for remaining activity at 10 µM: read-out: % Enzyme Activity (relative to DMSO controls).

T6 sequence (P80192 whole entry): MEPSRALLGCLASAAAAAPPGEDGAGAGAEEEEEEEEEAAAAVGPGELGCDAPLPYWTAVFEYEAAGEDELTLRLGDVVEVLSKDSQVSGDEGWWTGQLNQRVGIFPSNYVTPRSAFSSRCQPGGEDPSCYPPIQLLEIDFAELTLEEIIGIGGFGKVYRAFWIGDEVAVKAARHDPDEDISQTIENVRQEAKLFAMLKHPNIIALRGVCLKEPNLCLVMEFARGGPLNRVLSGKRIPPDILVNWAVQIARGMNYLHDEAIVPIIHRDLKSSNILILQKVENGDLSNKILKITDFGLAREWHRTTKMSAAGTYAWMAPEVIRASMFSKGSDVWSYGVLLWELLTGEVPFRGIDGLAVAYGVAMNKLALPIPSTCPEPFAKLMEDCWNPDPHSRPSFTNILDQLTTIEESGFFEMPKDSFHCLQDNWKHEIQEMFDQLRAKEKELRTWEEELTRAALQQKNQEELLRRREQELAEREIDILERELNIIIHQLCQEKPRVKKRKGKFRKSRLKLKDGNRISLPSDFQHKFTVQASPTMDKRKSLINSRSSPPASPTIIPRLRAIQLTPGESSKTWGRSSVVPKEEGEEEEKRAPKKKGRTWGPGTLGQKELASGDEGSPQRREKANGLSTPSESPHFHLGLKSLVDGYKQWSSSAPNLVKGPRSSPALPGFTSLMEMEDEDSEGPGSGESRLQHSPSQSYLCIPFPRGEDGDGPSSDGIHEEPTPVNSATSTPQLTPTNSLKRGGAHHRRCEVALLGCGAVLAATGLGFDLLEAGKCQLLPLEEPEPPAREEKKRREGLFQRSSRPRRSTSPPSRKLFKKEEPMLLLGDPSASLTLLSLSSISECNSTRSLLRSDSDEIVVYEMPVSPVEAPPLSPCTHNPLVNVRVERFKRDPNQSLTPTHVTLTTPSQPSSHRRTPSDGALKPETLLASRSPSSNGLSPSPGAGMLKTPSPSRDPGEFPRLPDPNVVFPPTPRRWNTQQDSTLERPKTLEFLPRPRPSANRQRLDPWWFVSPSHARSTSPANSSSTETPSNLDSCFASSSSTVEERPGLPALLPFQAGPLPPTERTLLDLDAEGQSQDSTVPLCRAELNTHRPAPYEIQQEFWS
T2 sequence (P37173 23-567): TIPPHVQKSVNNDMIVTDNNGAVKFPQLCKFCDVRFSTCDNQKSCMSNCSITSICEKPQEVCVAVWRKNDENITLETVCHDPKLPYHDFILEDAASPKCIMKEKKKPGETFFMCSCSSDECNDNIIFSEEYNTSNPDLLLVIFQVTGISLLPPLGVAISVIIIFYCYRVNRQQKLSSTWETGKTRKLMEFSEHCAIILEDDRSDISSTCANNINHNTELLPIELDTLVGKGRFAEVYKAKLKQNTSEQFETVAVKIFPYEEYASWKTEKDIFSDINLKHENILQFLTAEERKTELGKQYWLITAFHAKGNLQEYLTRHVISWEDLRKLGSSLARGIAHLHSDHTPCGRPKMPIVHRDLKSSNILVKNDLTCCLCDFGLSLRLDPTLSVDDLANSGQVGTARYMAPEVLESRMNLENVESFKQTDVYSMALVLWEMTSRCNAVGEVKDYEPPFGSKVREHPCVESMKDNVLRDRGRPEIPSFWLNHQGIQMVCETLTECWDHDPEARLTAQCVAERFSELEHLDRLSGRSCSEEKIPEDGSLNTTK

Regarding `CC(C)c1cc(-c2n[nH]c(=O)n2-c2ccc3c(ccn3C)c2)c(O)cc1O` [Ganetespib (STA9090)], the remaining activity at 10 µM was determined as 95.2% on 382 unique human kinases [1]; 92.9% at 382 unique human kinases [2]; 154% at 382 unique human kinases [3]; 73.7% at 382 unique human kinases [4]; 75% on 382 unique human kinases [5].
Regarding `CC(C)c1cc(-c2n[nH]c(=O)n2-c2ccc3c(ccn3C)c2)c(O)cc1O` [Ganetespib], at 382 unique human kinases [6], the remaining activity at 10 µM turned out to be 92.1%.
Take `CCNC(=O)c1noc(-c2cc(C(C)C)c(O)cc2O)c1-c1ccc(CN2CCOCC2)cc1` [Luminespib (AUY-922)]: the “% Enzyme Activity (relative to DMSO controls)” value on 382 unique human kinases [1] amounted to 92.42%; on 382 unique human kinases [2], 124.56%; at 382 unique human kinases [3], 101.59%; at 382 unique human kinases [4], 101.81%; on 382 unique human kinases [5], 98.38%. Moreover, the remaining activity at 10 µM on 382 unique human kinases [1] came out at 94.1%; at 382 unique human kinases [2], 129%; at 382 unique human kinases [3], 106%; at 382 unique human kinases [4], 103%; on 382 unique human kinases [5], 99.7%.
Turning to `CCNC(=O)c1noc(-c2cc(C(C)C)c(O)cc2O)c1-c1ccc(CN2CCOCC2)cc1` [Luminespib], on 382 unique human kinases [6], the “% Enzyme Activity (relative to DMSO controls)” value was determined as 102.58% and the remaining activity at 10 µM came to 103%.
